Measured values from publication PMC12274840 (The Journal of Biological Chemistry, 2025).
Like-named read-outs stand apart in the source and are kept apart here.

What was measured:
[1] = system: E. coli KA797 cells carrying pUK21 with BlaC WT (Tat); test: microbe, parasite or virus in culture; assay type: cell-based; settings: in combination with 100 μg/ml carbenicillin
[2] = system: E. coli KA797 cells carrying pUK21 with CTX-M-14 WT (Tat); test: microbe, parasite or virus in culture; assay type: cell-based; settings: in combination with 100 μg/ml carbenicillin
[3] = system: E. coli KA797 cells carrying pUK21 with NmcA (pelB/Sec); test: microbe, parasite or virus in culture; assay type: cell-based; settings: in combination with 25 μg/ml carbenicillin
[4] = system: E. coli KA797 cells carrying pUK21 with TEM-1 WT (Sec); test: microbe, parasite or virus in culture; assay type: cell-based; settings: in combination with 100 μg/ml carbenicillin
[5] = system: E. coli KA797 cells carrying BlaC position 105 library; assay type: cell-based, Escherichia coli; settings: for Fi AVG (average fitness): average of replicates

For `CC1(C)[C@H](C(=O)O)N2C(=O)C[C@H]2S1(=O)=O` [sulbactam], the MIC of inhibitor [1] was 4 µg/mL, the MIC of inhibitor [2] was 32 µg/mL and the MIC of inhibitor [3] was 32 µg/mL. The MIC of inhibitor [4] was 32 µg/mL, the “Fi AVG (average fitness)” value ([5]; AA 105 Ala (BlaC I105A), relative to WT Ile) was -0.022 and the “Fi AVG (average fitness)” value ([5]; AA 105 Arg (BlaC I105R), relative to WT Ile) was -0.000687. The “Fi AVG (average fitness)” value ([5]; AA 105 Asn (BlaC I105N), relative to WT Ile) was 0.167, the “Fi AVG (average fitness)” value ([5]; AA 105 Asp (BlaC I105D), relative to WT Ile) was -0.060 and the “Fi AVG (average fitness)” value ([5]; AA 105 Cys (BlaC I105C), relative to WT Ile) was -0.004. The “Fi AVG (average fitness)” value ([5]; AA 105 Gln (BlaC I105Q), relative to WT Ile) was 0.070, the “Fi AVG (average fitness)” value ([5]; AA 105 Glu (BlaC I105E), relative to WT Ile) was 0.009 and the “Fi AVG (average fitness)” value ([5]; AA 105 Gly (BlaC I105G), relative to WT Ile) was 0.023. The “Fi AVG (average fitness)” value ([5]; AA 105 His (BlaC I105H), relative to WT Ile) was 0.133, the “Fi AVG (average fitness)” value ([5]; AA 105 Ile (BlaC WT, reference)) was 0.000 and the “Fi AVG (average fitness)” value ([5]; AA 105 Leu (BlaC I105L), relative to WT Ile) was 0.101. For the same compound, the “Fi AVG (average fitness)” value ([5]; AA 105 Lys (BlaC I105K), relative to WT Ile) was 0.043, the “Fi AVG (average fitness)” value ([5]; AA 105 Met (BlaC I105M), relative to WT Ile) was -0.015 and the “Fi AVG (average fitness)” value ([5]; AA 105 Phe (BlaC I105F), relative to WT Ile) was 0.205. For the same compound, the “Fi AVG (average fitness)” value ([5]; AA 105 Pro (BlaC I105P), relative to WT Ile) was 0.056, the “Fi AVG (average fitness)” value ([5]; AA 105 Ser (BlaC I105S), relative to WT Ile) was 0.083 and the “Fi AVG (average fitness)” value ([5]; AA 105 Thr (BlaC I105T), relative to WT Ile) was 0.012. For the same compound, the “Fi AVG (average fitness)” value ([5]; AA 105 Trp (BlaC I105W), relative to WT Ile) was 0.218, the “Fi AVG (average fitness)” value ([5]; AA 105 Tyr (BlaC I105Y), relative to WT Ile) was 0.087 and the “Fi AVG (average fitness)” value ([5]; AA 105 Val (BlaC I105V), relative to WT Ile) was 0.121. For the same compound, the “WT abs Fi 1” value ([5]; absolute fitness of BlaC WT (Ile 105), replicate 1) was -0.251, the “WT abs Fi 2” value ([5]; absolute fitness of BlaC WT (Ile 105), replicate 2) was 0.228 and the “WT abs Fi 3” value ([5]; absolute fitness of BlaC WT (Ile 105), replicate 3) was -0.183.
